Assay results as given in a melting point compilation (Tetko et al.; mined from patent text by program, amines drawn as free bases though some values may be those of a salt).

Row | melting point | Compound
1 | 167 to 171 °C | O=C(O)c1ccc(O)c(OCc2ccccc2)c1
2 | 54 to 55 °C | Cc1cccc2c1CCCCC2=O
3 | 230 to 232 °C | Cc1nc2ccc(CN(CCO)c3ccc(C(=O)NCc4cccc([N+](=O)[O-])c4)cc3)cc2c(=O)[nH]1
4 | 85 to 87 °C | c1ccc(CN2CCC3(C2)OC(c2ccccc2)c2ccccc23)cc1 (stereo not drawn)
5 | 158 °C | CCOC(=O)c1nc2cccnc2n(-c2ccc(Cl)cc2)c1=O
6 | 169 to 170 °C | O=[N+]([O-])c1ccc(Cn2c(S(=O)(=O)C(F)(F)C(F)F)nc(-c3ccc(F)cc3)c2-c2ccc(F)cc2)cc1
7 | 130 °C | Cc1cccc(C)c1NC(=O)C(C)N1CCN(CCC2CCOc3ccccc32)CC1 (stereo not drawn)
8 | 75 to 77 °C | Cn1c(=O)c2ccsc2n(CC2CC2)c1=O
9 | 88 to 96 °C | COc1cc(C2CCN(CCO)CC2O)ccc1Nc1ncc2ccc(-c3ccccc3OC)n2n1 (stereo not drawn)
10 | 88.6 to 89.1 °C | Cc1ccc(-c2nccc3c(Cl)cccc23)cc1
11 | 173 to 174 °C | Nc1cc(C(=O)O)cc(SCc2ccccc2)c1-c1ccccc1
12 | 150 °C | CN1CCN(c2ccc(-c3cc(-c4c(-c5ccccn5)nc5ccccn45)ccn3)cc2)CC1
13 | 110 °C | Oc1ccc(C2Oc3ccccc3C=C2c2ccc(OC3CCCCO3)cc2)cc1 (stereo not drawn)
14 | 122 to 126 °C | ON=C(Cc1ccccc1)c1cccnc1
15 | 196 to 198 °C | Cc1cc(C=O)ccc1C(=O)O
16 | 49 to 53 °C | C=CCOC1=C(O)[C@@H](CC/C=C\CCCCCCCCCCCCCC)OC1=O
17 | 131 to 132 °C | Fc1ccccc1-c1noc2c(Cl)c(OCCBr)ccc12
18 | 209 to 210 °C | CC(C)(C)c1cc(NC(=O)c2ccccc2)cc(C(C)(C)C)c1O
19 | < 250 °C | COc1ccc2nc(Cl)c(NN)nc2c1
20 | 69 to 71 °C | CCCCCN(CCCCC)C(=O)C(CCC(=O)O)CS(=O)(=O)c1ccc(C(C)=O)cc1 (stereo not drawn)
21 | 220 to 221 °C | Cc1ccc(S(=O)(=O)N2c3ccc(Cl)cc3C(O)(c3ccccc3Cl)C2C(=O)N(C)C)cc1 (stereo not drawn)
22 | 113 to 114 °C | O=S1(=O)CCON=C1c1ccc(Cl)s1
23 | 74 to 75 °C | COc1ccc(C2=NN(CCCCCCBr)C(=O)[C@H]3CCCC[C@@H]23)cc1OC (relative stereo)

Row | melting point | Compound
24 | 73 to 74 °C | CC(NC(=O)CCl)(c1ccccc1)c1ccccc1
25 | 90 to 92 °C | COC(=O)c1ccc(OCCCOc2ccccc2)cc1O
26 | 123 to 124 °C | COc1cccc(-c2ccccc2C(=O)Nc2ccc(Cl)cc2)c1
27 | 210 to 212 °C | COC(=O)c1ccc(Cc2cn(C)c3ccc(NC(=O)NC4CCCC4)cc23)c(OC)c1
28 | 236 to 239 °C | CC(C)C[C@H]1CN(Cc2ccccc2)C[C@@H]1C(=O)O
29 | 228 °C | O=C(Nc1c(Cl)cncc1Cl)c1ccc(OC(F)F)c2oc3ccc(C(F)(F)F)cc3c12
30 | 201 to 203 °C | O=C(c1n[nH]c2ccccc12)N1CCCCC1
31 | 89 to 91 °C | Oc1ccc(Oc2ccc(OCC(O)CCc3cccnc3)cc2)cc1 (stereo not drawn)
32 | 85 to 89 °C | CN1CCN(c2ccc(S(=O)(=O)c3ccc(F)cc3)c(N)c2)CC1
33 | 144 to 146 °C | CCn1nc(OCC(=O)C(C)(C)C)c(-c2ccc(F)cc2)c1-c1ccc(S(C)(=O)=O)cc1
34 | 153 to 155 °C | CC(=O)Nc1nc2c(Oc3cc(-c4ccc(C(F)(F)F)cc4NC(=O)C4CCCCN4CC(C)C)ncn3)cccc2s1 (stereo not drawn)
35 | 145 to 147 °C | Cc1ccc(S(=O)(=O)N(C)c2ccc(Cl)cc2C#N)cc1
36 | 172 to 173 °C | CCc1noc(-c2cn(-c3ccc(Oc4ccccc4)cc3)cn2)n1
37 | 132 °C | O=C(c1ccccc1)c1cc(O)c(O)c([N+](=O)[O-])c1
38 | 152 to 155 °C | Cn1c(-c2ccc(-n3cnc4ccccc43)cc2)cnc1[C@H](Cc1ccccn1)N(C=O)c1cc2ccccc2o1
39 | 107 to 108 °C | COCCOC(=O)CC[C@@H](NC(=O)[C@@H](NC(=O)OC(C)(C)C)C(C)C)C(N)=O
40 | 242 to 247 °C | COc1ccc(-c2nc(C3=NNC(=O)CC3)sc2-c2ccc(OC)cc2)cc1
41 | 75 to 78 °C | N#CC1(N)CCc2ccc3ccccc3c2C1 (stereo not drawn)
42 | 62 to 63.5 °C | COc1ccc(S(=O)(=O)c2cnoc2C(C)C)cc1
43 | 86 to 88 °C | CCOC(=O)c1cc2c(OC)cc3c(c2n1Cc1ccccc1)CCCC3
44 | 178 to 179 °C | Cc1ccc(NC(=O)c2cccc(N(C)C)c2)cc1NC(=O)c1ccc(N(C)CCCN(C)C)cc1
45 | > 200 °C | Oc1ccc(-c2nn(-c3cccc(F)c3)c3cc(O)ccc23)c(O)c1
46 | 152 to 153 °C | COC(=O)c1cc(Br)cc(Cl)c1NC(C)=O

Row | melting point | Compound
47 | 135 to 137 °C | COc1ccc(CCNC(=O)C(=O)NCCCCCCNC(=O)OC(C)(C)C)cc1OC1CCCC1
48 | 73 to 75 °C | C=CCOC(=O)CCCOc1cc([N+](=O)[O-])c(CO)cc1OC
49 | 6 to 7 °C | CC/C=C\C#CCCCCCCCCCCO
50 | 139 to 142 °C | O=c1oc(-c2ccc(OCCCc3ccccc3)cc2)cc(O)c1SCCc1ccccc1
51 | 61.3 to 61.9 °C | Cc1cc(C(=O)N2CCCC2)ccc1[N+](=O)[O-]
52 | 113 to 116 °C | COC(=O)CC(=O)c1ncccc1Cl
53 | > 250 °C | NC(=O)c1ccc2c(O)cncc2c1
54 | 247 to 252 °C | CCCCNS(=O)(=O)CC(O)C(O)C(CC1CCCCC1)NC(=O)c1ccc(O)nc1 (stereo not drawn)
55 | 195 to 197 °C | Cc1ccc(S(=O)(=O)OCC2(CO)OC(n3ccc(=O)[nH]c3=O)C(O)C2OCc2ccccc2)cc1 (stereo not drawn)
56 | 158 °C | O=C(O)CCC(=O)c1ccc(Cl)c(S(=O)(=O)NCc2ccccc2Cl)c1
57 | 143 °C | CC(=O)N=c1[nH]c2ccccc2n1CCCN1CCN(C(c2ccccc2)c2ccccc2)CC1
58 | 266 to 268 °C | Cc1nc2c(cc1Br)c(=O)c(C(=O)NCc1ccc(Cl)cc1)cn2C
59 | 120 to 122 °C | CCC(=O)c1cccc(Oc2nc(OC)cc(OC)n2)c1C(=O)OC
60 | 160 to 161 °C | COc1cccc2c(-c3ccccc3)c([N+](=O)[O-])oc12
61 | 178 to 179 °C | Cc1cc(-c2[nH]c3c([N+](=O)[O-])cccc3c2C)cc(C)c1O
62 | 264 to 266 °C | CC(=O)OCC1OC(n2c3ccccc3c3c4c(c5c6cccnc6[nH]c5c32)C(=O)N(CO)C4=O)C(OC(C)=O)C(OC(C)=O)C1OC(C)=O (stereo not drawn)
63 | 152 °C | Cc1cccc(NC(=O)NC2CN(C(=O)C(C)(C)C)c3ccccc3N(CC(C)C)C2=O)c1 (stereo not drawn)
64 | 210 to 212 °C | CC(C)(C)Nc1c(NCc2cccc(OC(F)(F)F)c2)c(=O)c1=O
65 | 108 to 110 °C | Cc1nc(-n2cc(CCCc3ccccc3)nn2)sc1C(=O)NCc1cccnc1
66 | 136 to 138 °C | CCCCc1nc(CCCC)n(Cc2ccc(-c3ccccc3-c3nnn[nH]3)cn2)n1
67 | 68 to 70 °C | COc1ccccc1C(C)NCC(=O)Nc1c(C(C)C)cccc1C(C)C (stereo not drawn)
68 | 202 to 204 °C | COc1cccc(CC2NC(=O)NC2=O)c1OCc1ccccc1 (racemic)
69 | 133 to 134 °C | CCC(=O)Nc1cc(C2=NCCO2)ccc1OCCCCCc1cc(C)no1

Row | melting point | Compound
70 | 171 to 172 °C | Cc1nc(N2C(=O)N(Cc3ccc(C(F)(F)F)cc3)CC2O)sc1C(=O)NCc1cccnc1 (stereo not drawn)
71 | 160 to 162 °C | Cc1ccc2ccc(C(=O)O)nc2c1
72 | 243 to 245 °C | COc1cccc(OC)c1C(=O)Nc1nnc(-c2cccc(O)c2)s1
73 | 250 to 253 °C | CC(=O)C1=C(O)C(=C(C)Nc2ccc(NC(N)=O)cc2)C(=O)OC1=O
74 | 72 to 75 °C | Cn1c(C(F)(F)F)cc(=O)n(-c2ccc3snc(C4OCC(CS(C)=O)O4)c3c2)c1=O (stereo not drawn)
75 | 79 to 80 °C | Cc1c(C)c2c(c(C)c1O)C(CBr)C(C)(C)O2 (stereo not drawn)
76 | 206 to 207 °C | Fc1ccc(F)c(CN2CCNc3ncc(-c4ccc(N5CCOCC5)nc4)cc32)c1
77 | 138 to 139 °C | OCc1conc1-c1ccc(-c2ccccc2)cc1
78 | 178 to 180 °C | COC(=O)c1c(-c2ccc(C#N)cc2)cn(-c2ccc(Br)cc2)c1C(=O)OC
79 | 47 to 48 °C | C=CC(CSCCC(F)(F)C(F)(F)C(F)(F)C(F)(F)C(F)(F)C(F)(F)F)SSc1nc2ccccc2s1 (stereo not drawn)
80 | 245 to 250 °C | O=C(O)C1Oc2ccc3ccccc3c2C=C1C(F)(F)F (stereo not drawn)
81 | 168 to 170 °C | CCOC(=O)c1ccc(-c2coc(-c3ccc(C(F)(F)F)cc3)n2)cc1
82 | 146 to 149 °C | BrCCCc1ncnn1C(c1ccccc1)(c1ccccc1)c1ccccc1
83 | 147 to 148 °C | CN(C)c1cnc(-c2cccc(Cl)c2Cl)c(N)n1
84 | 166 to 169 °C | CC(C)Cn1c(=O)n(C)c(=O)c2c(SC(C)C)c(C(=O)c3nc4ccccc4n3C)sc21
85 | > 225 °C | Cc1cccc(-c2cccc3c2OC(CN)C3)c1C (stereo not drawn)
86 | 167 to 169 °C | c1ccc(-c2cccc(-c3nc4c5ccccc5ccn4n3)c2)cc1
87 | 95.5 to 96 °C | O=c1n(CCC#Cc2ccccn2)nc2ccccn12
88 | 205 to 208 °C | O=C(NC(=O)c1c(F)cccc1F)Nc1cc(Cl)cc(C(F)(F)F)c1Cl
89 | 161 °C | COc1cccc(CCN2C(=O)c3c(F)c(F)c(F)c(F)c3C2(O)c2ccc(F)cc2)c1 (stereo not drawn)
90 | 190 °C | CCOC(=O)c1cc(NCc2c(C)cccc2C)c2nc(C)n(C)c2c1
91 | 219 to 220 °C | CCOC(=O)c1ccc(NC(=O)NC2CN(C3CCCCC3)c3ccccc3N(CC(=O)c3cccs3)C2=O)cc1 (stereo not drawn)
92 | 134 to 135 °C | O=Cc1ccc2c(c1)CC[C@H](Cc1ccc(O)cc1)O2

Row | Compound | melting point
93 | CCCCCCC(C)(C)c1cc(O)cc(O)c1 | 93 to 95 °C
94 | Cc1ccc2c(=O)n(CCCN3CC=C(c4ccc(Cl)cc4)CC3)c(=O)[nH]c2c1 | 199 to 201 °C
95 | COC(=O)c1ccc(-c2ccc(-c3cn([C@H]4CN5CCC4CC5)nn3)s2)cc1Cl | 200 °C
96 | c1ccc2c(C3CN4CCC3CC4)c[nH]c2c1 (stereo not drawn) | 214 to 216 °C
97 | Cc1c(C2(N(C)C)CCC(c3cccc(F)c3)(N(C)C)CC2)[nH]c2ccccc12 (stereo not drawn) | 126 to 132 °C
98 | CN1C(=O)[C@H](NC(=O)c2cc3cc(Cl)ccc3[nH]2)N=C(c2ccccc2)c2ccccc21 | 160 to 164 °C
